Numbered stars: 1 amine (or outer) side, 2 acyl side, 3 side chain; on linkers, the order of the positions; unused ones are H or OH. Bridge positions count the residues as written; N and C are the ends. Square brackets hold non-standard residues; d marks the D form. Peptide text beside a SMILES is read from it. * marks the point of attachment. C20 diacid = O=C(O)CCCCCCCCCCCCCCCCCCC(=O)*; γGlu = O=C(O)[C@H](CCC(=O)[*:2])N[*:1]; Hyp = O=C(O)[C@@H]1C[C@@H](O)CN1; NMeI = CC[C@H](C)[C@H](NC)C(=O)O; Sar = CNCC(=O)O
Tests used:
[1] = biological target: T1, human amylin receptor 3 (hAMYR3) consisting of hCTR2 co-expressed with human Receptor Activity Modifying Protein 3 (hRAMP3) (Homo sapiens, UniProt O60896+P30988); assay: hAMYR3 assay: induction of cAMP (AlphaScreen cAMP Assay kit) in COS7 cells expressing hAMYR3; assay type: cell-based; conditions: cAMP induction in COS7 cells expressing hAMYR3; average of a minimum of 3 determinations; read-out: hAMY R3 EC50
T1 construct: expressed in transfected cells
T1 sequence (P30988 25-474): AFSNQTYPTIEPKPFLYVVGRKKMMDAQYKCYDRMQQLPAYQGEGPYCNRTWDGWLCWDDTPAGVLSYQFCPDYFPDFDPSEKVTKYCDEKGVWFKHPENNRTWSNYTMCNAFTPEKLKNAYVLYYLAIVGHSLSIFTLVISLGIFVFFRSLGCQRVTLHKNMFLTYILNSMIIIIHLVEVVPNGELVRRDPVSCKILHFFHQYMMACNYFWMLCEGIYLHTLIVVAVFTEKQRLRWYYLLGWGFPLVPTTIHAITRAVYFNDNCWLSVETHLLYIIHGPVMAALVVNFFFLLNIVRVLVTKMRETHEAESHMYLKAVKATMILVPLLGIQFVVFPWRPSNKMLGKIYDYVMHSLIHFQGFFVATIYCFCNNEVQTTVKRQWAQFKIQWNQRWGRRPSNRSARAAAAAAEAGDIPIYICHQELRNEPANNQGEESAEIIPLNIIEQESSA
T1 sequence (O60896 24-148 partner): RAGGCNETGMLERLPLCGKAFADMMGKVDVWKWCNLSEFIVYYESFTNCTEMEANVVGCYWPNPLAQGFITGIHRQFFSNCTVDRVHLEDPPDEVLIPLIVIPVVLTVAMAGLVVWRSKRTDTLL
Procedure, shortened: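 cAMP accumulation read by AlphaScreen in lysates of RAMP-naive COS7 cells stably transfected with hCTR2 plus hRAMP3. Cells exposed to peptide dilutions for 15 min, 37° C, with 100 µM IBMX; 4PL fitting gave EC50 and efficacy relative to pramlintide.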

[2] = Solubility assessment (turbidity absorbance at 325 nm); assay type: physicochemical; conditions: stock 2 mg/ml diluted 1:1, ambient temperature (typically 25°C), n=1; for Solubility, Acetate buffer pH 4: 100 mM acetate buffer pH 4.0; for Solubility, Acetate buffer pH 5: 100 mM acetate buffer pH 5.0; for Solubility, Histidine buffer pH 6: 100 mM histidine buffer pH 6.0; for Solubility, Histidine buffer pH 7: 100 mM histidine buffer pH 7.0; for Solubility, Phosphate buffer pH 6: 100 mM phosphate buffer pH 6.0; for Solubility, Phosphate buffer pH 7: 100 mM phosphate buffer pH 7.0; for Solubility, Phosphate buffer pH 7.5: 100 mM phosphate buffer pH7.5
Procedure, shortened: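 Read-out: turbidity as absorbance at 325 nm (280 nm also read), single samples, ambient temperature of typically 25°C. Samples were a 1:1 mix of 2 mg/ml stock (water, pH 2.5) with 100 mM acetate, histidine or phosphate buffers spanning pH 4.0–7.5. Cut-off: A325 ≤ 0.02 indicates ≥ 1 mg/ml.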

[3] = Assessment of physical stability: fibril formation detected with Thioflavin T (ThT), lag-time; assay type: physicochemical; conditions: 1 mg/ml peptide, 40 µM ThT, FND = Fibrillation not detected; for Fibrillation lag time (hours) pH 4.0 (Ac): 50 mM acetate buffer pH 4.0, 96 hours at 40°C; for Fibrillation lag time (hours) pH 7.0 (His): 50 mM histidine buffer pH 7.0, 96 hours at 40°C; for Fibrillation lag time (hours) pH 7.0 (Ph): 50 mM phosphate buffer pH 7.0, 96 hours at 40°C
Procedure, shortened: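 Test peptide at 1 mg/ml with 40 µM ThT in 50 mM phosphate (pH 7.0), 50 mM histidine (pH 7.0) or 50 mM acetate (pH 4.0), in triplicate, 40° C. for 96 h. Fluorescence read every 10 min after 300 s agitation. Lag-time (h) taken as intersection of linear fits to initial stable and growth phases.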

Row | EC50 [1] [nM] | Solubility, Acetate buffer pH 4 [2] | Solubility, Acetate buffer pH 5 [2] | Solubility, Histidine buffer pH 6 [2] | Solubility, Histidine buffer pH 7 [2] | Solubility, Phosphate buffer pH 6 [2] | Solubility, Phosphate buffer pH 7 [2] | Solubility, Phosphate buffer pH 7.5 [2] | Fibrillation lag time (hours) pH 4.0 (Ac) [3] | Fibrillation lag time (hours) pH 7.0 (His) [3] | Fibrillation lag time (hours) pH 7.0 (Ph) [3] | SMILES
1 | 0.19 | II (II indicates solubility ≤ 1 mg/ml) | SS (SS indicates solubility ≥ 1mg/ml) | SS (SS indicates solubility ≥ 1mg/ml) | SS (SS indicates solubility ≥ 1mg/ml) | SS (SS indicates solubility ≥ 1mg/ml) | SS (SS indicates solubility ≥ 1mg/ml) | SS (SS indicates solubility ≥ 1mg/ml) | FND | FND | FND | CC[C@H](C)[C@@H](C(=O)N[C@@H](CC(C)C)C(=O)N[C@@H](CO)C(=O)N[C@@H](CO)C(=O)N[C@H](C(=O)N[C@@H](CCC(=O)O)C(=O)N[C@H](C(=O)NCC(=O)N[C@@H](CO)C(=O)N[C@@H](CCC(=O)O)C(=O)N[C@H](C(=O)N1CCC[C@H]1C(N)=O)[C@@H](C)O)C(C)C)[C@@H](C)O)N(C)C(=O)[C@H](C)NC(=O)CN(C)C(=O)[C@H](Cc1ccccc1)NC(=O)[C@H](CO)NC(=O)[C@H](CO)NC(=O)[C@H](CCCNC(=N)N)NC(=O)[C@H](Cc1c[nH]cn1)NC(=O)[C@H](CC(C)C)NC(=O)[C@H](Cc1ccccc1)NC(=O)[C@H](CCC(=O)O)NC(=O)[C@H](C)NC(=O)[C@H](CC(C)C)NC(=O)[C@H](CCCNC(=N)N)NC(=O)[C@H](CCC(=O)O)NC(=O)[C@@H](NC(=O)[C@H](C)NC(=O)[C@@H]1CSSC[C@H](NC(=O)[C@H](Cc2c[nH]c3ccccc23)NC(=O)CC[C@H](NC(=O)CCCCCCCCCCCCCCCCCCC(=O)O)C(=O)O)C(=O)NCC(=O)N[C@@H]([C@@H](C)O)C(=O)N[C@@H](C)C(=O)N[C@@H]([C@@H](C)O)C(=O)N1)[C@@H](C)O [Compound 161, [19CD]-isoGlu-WC()GTATC()ATERLAEFLHRSSF-Gly(Me)-A-Ile(Me)-LSSTEVGSETP-NH2] ({C20 diacid-γGlu}-WCGTATCATERLAEFLHRSSF[Sar]A[NMeI]LSSTEVGSETP-NH2; disulfide 2-7)
2 | 0.14 | SS (SS indicates solubility ≥ 1mg/ml) | SS (SS indicates solubility ≥ 1mg/ml) | SS (SS indicates solubility ≥ 1mg/ml) | SS (SS indicates solubility ≥ 1mg/ml) | SS (SS indicates solubility ≥ 1mg/ml) | SS (SS indicates solubility ≥ 1mg/ml) | SS (SS indicates solubility ≥ 1mg/ml) | FND | FND | FND | CC[C@H](C)[C@@H](C(=O)N[C@@H](CC(C)C)C(=O)N[C@@H](CO)C(=O)N[C@@H](CO)C(=O)N[C@H](C(=O)N[C@@H](CCC(=O)O)C(=O)N[C@H](C(=O)NCC(=O)N[C@@H](CO)C(=O)N[C@@H](CCC(=O)O)C(=O)N[C@H](C(=O)N1CCC[C@H]1C(N)=O)[C@@H](C)O)C(C)C)[C@@H](C)O)N(C)C(=O)[C@H](C)NC(=O)CN(C)C(=O)[C@H](Cc1ccccc1)NC(=O)[C@H](CO)NC(=O)[C@H](CO)NC(=O)[C@H](CCCNC(=N)N)NC(=O)[C@H](Cc1c[nH]cn1)NC(=O)[C@H](CC(C)C)NC(=O)[C@H](Cc1ccccc1)NC(=O)[C@H](CCC(=O)O)NC(=O)[C@H](C)NC(=O)[C@H](CC(C)C)NC(=O)[C@H](CCCNC(=N)N)NC(=O)[C@H](CCC(=O)O)NC(=O)[C@@H](NC(=O)[C@H](C)NC(=O)[C@@H]1CSSC[C@H](NC(=O)[C@H](CCCNC(=N)N)NC(=O)CC[C@H](NC(=O)CCCCCCCCCCCCCCCCCCC(=O)O)C(=O)O)C(=O)NCC(=O)N[C@@H]([C@@H](C)O)C(=O)N[C@@H](C)C(=O)N[C@@H]([C@@H](C)O)C(=O)N1)[C@@H](C)O [Compound 162, [19CD]-isoGlu-RC()GTATC()ATERLAEFLHRSSF-Gly(Me)-A-Ile(Me)-LSSTEVGSETP-NH2] ({C20 diacid-γGlu}-RCGTATCATERLAEFLHRSSF[Sar]A[NMeI]LSSTEVGSETP-NH2; disulfide 2-7)
3 | 0.11 | SS (SS indicates solubility ≥ 1mg/ml) | SS (SS indicates solubility ≥ 1mg/ml) | SS (SS indicates solubility ≥ 1mg/ml) | SS (SS indicates solubility ≥ 1mg/ml) | SS (SS indicates solubility ≥ 1mg/ml) | SS (SS indicates solubility ≥ 1mg/ml) | SS (SS indicates solubility ≥ 1mg/ml) | FND | FND | FND | CC[C@H](C)[C@@H](C(=O)N[C@@H](CC(C)C)C(=O)N[C@@H](CO)C(=O)N[C@@H](CO)C(=O)N[C@H](C(=O)N[C@@H](CCC(=O)O)C(=O)N[C@H](C(=O)NCC(=O)N[C@@H](CO)C(=O)N[C@@H](CCC(=O)O)C(=O)N[C@H](C(=O)N1C[C@H](O)C[C@H]1C(N)=O)[C@@H](C)O)C(C)C)[C@@H](C)O)N(C)C(=O)[C@H](C)NC(=O)CN(C)C(=O)[C@H](Cc1ccccc1)NC(=O)[C@H](CO)NC(=O)[C@H](CO)NC(=O)[C@H](CCCNC(=N)N)NC(=O)[C@H](Cc1c[nH]cn1)NC(=O)[C@H](CC(C)C)NC(=O)[C@H](Cc1ccccc1)NC(=O)[C@H](CCC(=O)O)NC(=O)[C@H](C)NC(=O)[C@H](CC(C)C)NC(=O)[C@H](CCCNC(=N)N)NC(=O)[C@H](CCC(=O)O)NC(=O)[C@@H](NC(=O)[C@H](C)NC(=O)[C@@H]1CSSC[C@H](NC(=O)[C@H](CCCNC(=N)N)NC(=O)CC[C@H](NC(=O)CCCCCCCCCCCCCCCCCCC(=O)O)C(=O)O)C(=O)NCC(=O)N[C@@H]([C@@H](C)O)C(=O)N[C@@H](C)C(=O)N[C@@H]([C@@H](C)O)C(=O)N1)[C@@H](C)O [Compound 166, [19CD]-isoGlu-RC()GTATC()ATERLAEFLHRSSF-Gly(Me)-A-Ile(Me)-LSSTEVGSET-Hyp-NH2] ({C20 diacid-γGlu}-RCGTATCATERLAEFLHRSSF[Sar]A[NMeI]LSSTEVGSET[Hyp]-NH2; disulfide 2-7)
